Reference: paper PMC7698306, “Exploring the Role of a Novel Peptide from Allomyrina dichotoma Larvae in Ameliorating Lipid Metabolism in Obesity” (International Journal of Molecular Sciences, 2020)
Values joined by “and” are separate entries in the source; they are usually repeats but may differ in a detail not shown here. Equal values may be shown once. No end group written: not given here.

How the values were obtained:
HFD-fed mice [1] = assay: Body weight, energy intake, organ and adipose tissue weights, DXA body fat in high-fat diet (HFD)-fed mice; format: in vivo, C57BL/6 mice; conditions: for Total fat weight: DXA; for Total fat weight / food intake between different drug groups (appetite): EIA10 100 mg/kg/d or orlistat 60 mg/kg/d oral; for food intake between different drug groups (appetite): HFD-fed mice; for Total energy intake: over 10 weeks
Excerpt: (§1) Four-week-old male C57BL/6 mice were purchased from the Nara Bio Animal Center (NARA Biotech, Seoul, Korea) All experiments were approved by the Institutional Animal Care and Use Committee of Konkuk University (14 July 2019). All possible efforts were made to minimize the suffering and the animal count utilized in this study (KU19102). The mice were randomly divided into the following two groups after 1 week of acclimatization: n = 8 in the control group, fed a normal diet (Control, fat content of 10% kcal), and n = 30, fed a high-fat diet (HFD, fat content of 60% kcal). Mice were registered daily for food intake, and their body weights were assessed twice a week. After 5 weeks, mice with a body weight 20% higher than that of the control group were picked and divided randomly into three groups (n = 8/group): HFD + EIA10, 100 mg/kg/d; and HFD + orlistat, 60 mg/kg /d for 5 weeks. As a positive control, Orlistat was used. After 12 weeks, the mice were subjected to fasting overnight and sacrificed (Figure 2A). Blood samples were harvested for further analysis. Sections of epididymal adipose and liver tissues were fixed in 10% formaldehyde for histological analyses and frozen in liquid nitrogen.
Dual-energy X-ray absorptiometry (DXA) measurements were used to compare the body fat. DXA measurements were performed after 4 weeks of administration using a total-body scanner (InAlyzer dual X-ray absorptiometry, Medikors, Gyeonggi, Korea). Data were obtained once with low energy and once with high energy.

HFD-fed mice [2] = assay: Serum biochemical parameters in HFD-fed mice; format: in vivo, C57BL/6 mice; conditions: EIA10 100 mg/kg/d or orlistat 60 mg/kg/d oral for 5 weeks, mean ± SEM, n = 8; for ALT (alanine aminotransferase) / AST (aspartate aminotransferase) / HDL (high-density lipoprotein cholesterol) / LDL/VLDL / TC (total cholesterol) / TG (triglyceride): serum
Excerpt: as §1
(§2) Through heart puncture, blood samples were collected and serum was isolated through centrifugation (3000 rpm for 20 min) and processed before further study at −80 °C. An automated analyzer (Abaxis VETSVAN VS2 Chemistry Analyzer, Union City, CA, USA) assessed serum levels of blood urea nitrogen, alanine aminotransferase (ALT), alkaline phosphatase, aspartate aminotransferase (AST), total protein, serum albumin, and electrolytes. Using a fast blood lipid analyzer (OSANG Healthcare Lipid Pro, Anyang, Korea), total cholesterol (TC), low-density lipoprotein cholesterol (LDL), high-density lipoprotein cholesterol (HDL), and TG were calculated. Adiponectin was analyzed by Western blotting, and leptin was quantified using a leptin enzyme-linked immunosorbent assay (ELISA) kit (MERCK, DHB, Germany).

HFD-fed mice [3] = assay: Oral glucose tolerance test, insulin levels and insulin resistance indices in HFD-fed mice; format: in vivo, C57BL/6 mice; conditions: for area under the OGTT curve (AUC): oral glucose 1 g/kg after 12 h fast, Figure 3B
Excerpt: as §1, with “After 5 weeks, mice with a body weight 20% higher than that of the control group were picked and divided randomly into three groups (n = 8/group):” left out, “nitrogen. An oral glucose tolerance test (OGTT) to determine the clearance of a standardized glucose load was performed after 5 weeks of oral administration. Plasma glucose was determined under postabsorptive conditions with blood collected at time ‒30 and 0 and then after oral administration of 1 g/kg of glucose at 30, 60, 90, and 120 min. Using a Blood Glucose Testing System (891 Hogye-Dong Dongan-gu, Anyang, Gyeonggi-do, Korea), blood samples were measured from the tail veins. A mouse ultrasensitive insulin ELISA package (ALPCO, Salem, NH, USA) was quantified for serum insulin. The hepatic insulin resistance index (hepatic IRI) was estimated by using the validated method of Matsuda and DeFronzo [43]. Insulin resistance was assessed using the homeostasis model assessment of insulin resistance (HOMA-IR). HOMA is a mathematically derived model of glucose–insulin feedback.” for “nitrogen.”

3T3-L1 cells = assay: Lipid accumulation in differentiated 3T3-L1 cells by Oil Red O staining; format: cell-based; conditions: synthesized peptides, untreated cells as control
Protocol: The 3T3-L1 cells were obtained from the Korean Cell Line Bank (Seoul, Korea). They were cultured and maintained in Dulbecco’s modified Eagle medium (DMEM) at 37 °C in a humidified atmosphere of 5% CO2. Additionally, 2-day post-confluent preadipocytes (designated day 0) were cultured in a 2-day differentiation medium composed of DMEM, 0.5 mM IBMX, 1 μM dexamethasone, and 5 μg/mL insulin to induce differentiation. The cells were then cultured in a DMEM containing 5 μg/mL insulin for another 2 days. The medium was replaced every 2 days until the cells had accumulated intracellular lipid droplets. Cells were seeded in 6-well plates, and adipocyte differentiation was induced for 8 days. On day 8, the cells were fixed with 10% buffered formalin and stained with Oil Red O solution for 60 min at room temperature. Images of lipid droplets in the 3T3-L1 adipocytes were captured using a Leica DMi1 microscope (Leica, Germany).

HFD-fed mice [4] = assay: Histological analysis of liver and epididymal adipose tissue (H&E, Oil Red O, IHC) of HFD-fed mice; format: in vivo, C57BL/6 mice
Excerpt: as §1
Liver and epididymal adipose tissues were dissected and embedded in paraffin for histological examination. Tissue blocks were cut into 4-μm thick sections that were stained with hematoxylin and eosin. Frozen liver sections were cut into 8-μm thick sections that were stained with Oil Red O. Adipocyte sizes were assessed using a microscope under 200× magnification to measure tissue size.

[5] = system: adiponectin, leptin, SREBP-1c, PPARγ, C/EBP-α, FAS, ACC, FABP4; assay: mRNA (real-time PCR) and protein (Western blot, ELISA) levels of adipogenic/lipogenic factors in HFD-fed mice; format: in vivo, C57BL/6 mice
Excerpt: as §1, §2
Total cellular RNA was isolated from the epididymal adipose tissue of each group of mice using TRIzol. The first strand of complementary DNA (cDNA) was synthesized using Superscript II reverse transcriptase (Invitrogen). The conditions for RT-PCR were similar to those previously described. Quantitative real-time PCR was carried out using a Thermal Cycler Dice TP850 (Takarabio Inc., Shiga, Japan) according to the manufacturer’s protocol.
Frozen epididymal adipose tissues from mice were homogenized in liquid nitrogen. Tissue lyses were lysed in a radioimmunoprecipitation lysis buffer containing 1% protein inhibitor cocktail. They were transferred to a nitrocellulose blotting membrane and blocked with 5% skim milk, incubated overnight with primary antibodies purchased from Cell Signaling Technology, and then incubated with secondary antibodies for 2 h. Equal protein loading was ascertained using Ponceau S staining of the blotted membranes. With the help of an improved chemiluminescence detection reagent, the antibody-specific proteins were visualized and quantified using ImageJ tools.

[6] = male C57BL/6 mice on HFD, mean ± SEM, n = 8
[7] = male C57BL/6 mice on HFD, EIA10 100 mg/kg/d or orlistat 60 mg/kg/d oral for 5 weeks, mean ± SEM, n = 8

For `CCCCCCCCCCC[C@@H](C[C@@H]1OC(=O)[C@H]1CCCCCC)OC(=O)[C@H](CC(C)C)NC=O` [Orlistat, reference compound], the Total fat weight (HFD-fed mice [1]; [6]) was 13.71 ± 1.09 g, the “food intake between different drug groups (appetite)” value (HFD-fed mice [1]) was “No significant difference” and the Body weight gain (HFD-fed mice [1]; [7]) was 12.56 ± 0.45 g. The “Epididymal adipose tissue weight” value (HFD-fed mice [1]; [7]) was 1.90 ± 0.48 g, the Final body weight (HFD-fed mice [1]; [7]) was 36.11 ± 3.92 g and the Initial body weight (HFD-fed mice [1]; [7]) was 23.55 ± 0.07 g. For the same compound, the Liver weight (HFD-fed mice [1]; [7]) was 1.14 ± 0.12 g, the “Subcutaneous adipose tissue weight” value (HFD-fed mice [1]; [7]) was 3.11 ± 0.53 g and the Total energy intake (HFD-fed mice [1]; [7]) was 1031.35 kcal and 1031.35 ± 26.32 kcal. The Glucose (HFD-fed mice [2]) was 160.78 ± 13.62 mg/dL, the “ALT (alanine aminotransferase)” value (HFD-fed mice [2]) was 44.75 ± 8.38 U/L and the “AST (aspartate aminotransferase)” value (HFD-fed mice [2]) was 113.88 ± 16.17 U/L. The “HDL (high-density lipoprotein cholesterol)” value (HFD-fed mice [2]) was 72.05 ± 4.38 mg/dL, the LDL/VLDL (HFD-fed mice [2]) was 41.21 ± 2.59 mg/dL and the “TC (total cholesterol)” value (HFD-fed mice [2]) was 113.26 ± 3.40 mg/dL. The “TG (triglyceride)” value (HFD-fed mice [2]) was 115.52 ± 4.66 mg/dL and the “area under the OGTT curve (AUC)” value (HFD-fed mice [3]; vs HFD group, p < 0.05) was “significantly lower”.

ALNQAWAFLK [Peptide 16] was tested, and the “Lipid Accumulation (% of Control)” value (3T3-L1 cells) was 57.47 % of Control.

In the case of AVQGLLK [Peptide 5], the “Lipid Accumulation (% of Control)” value (3T3-L1 cells) is reported as 48.40 % of Control.

“Ala-Glu-Arg-Val-Gly-Ala-Gly-Ala-Pro-Val-Try [Peptide 17]” was tested, and the “Lipid Accumulation (% of Control)” value (3T3-L1 cells) was 35.06 % of Control.

With EIAQDFK [Peptide 3] the “Lipid Accumulation (% of Control)” value (3T3-L1 cells) was 52.20 % of Control.

EIAQDFKTDL [EIA10] was tested, and the Total fat weight (HFD-fed mice [1]; [6]) was 12.71 ± 0.78 g, the “food intake between different drug groups (appetite)” value (HFD-fed mice [1]) was “No significant difference” and the “Epididymal adipose tissue weight” value (HFD-fed mice [1]; [7]) was 2.06 ± 0.34 g. For the same compound, the Final body weight (HFD-fed mice [1]; [7]) was 37.38 ± 2.55 g, the Initial body weight (HFD-fed mice [1]; [7]) was 23.07 ± 0.33 g and the “Interscapular adipose tissue weight” value (HFD-fed mice [1]; [7]) was 0.22 ± 0.06 g. For the same compound, the Liver weight (HFD-fed mice [1]; [7]) was 1.22 ± 0.25 g, the “Subcutaneous adipose tissue weight” value (HFD-fed mice [1]; [7]) was 3.36 ± 0.58 g and the Total energy intake (HFD-fed mice [1]; [7]) was 1026.01 kcal and 1026.01 ± 2.60 kcal. The “lipid droplets in the liver (Oil Red O staining of frozen sections)” value (HFD-fed mice [4]; EIA10 100 mg/kg/d oral 5 weeks, vs HFD group, Figure 2C,E) was “significantly reduced number of lipid droplets”, the “size of the adipose cells (epididymal fat, H&E)” value (HFD-fed mice [4]; EIA10 100 mg/kg/d oral 5 weeks, vs HFD group, Figure 2D) was “lower than that of the HFD group” and the “FAS in liver tissue by immunohistochemistry (IHC)” value (HFD-fed mice [4]; Figure 5C) was “inhibited”. The Glucose (HFD-fed mice [2]) was 137 ± 11.47 mg/dL, the “ALT (alanine aminotransferase)” value (HFD-fed mice [2]) was 58.75 ± 13.16 U/L and the “AST (aspartate aminotransferase)” value (HFD-fed mice [2]) was 99.20 ± 20.00 U/L. The “HDL (high-density lipoprotein cholesterol)” value (HFD-fed mice [2]) was 74.49 ± 2.57 mg/dL, the LDL/VLDL (HFD-fed mice [2]) was 32.97 ± 3.42 mg/dL and the “TC (total cholesterol)” value (HFD-fed mice [2]) was 107.46 ± 5.15 mg/dL. The “TG (triglyceride)” value (HFD-fed mice [2]) was 140.25 ± 5.23 mg/dL, the “insulin resistance (hepatic IRI, HOMA-IR)” value (HFD-fed mice [3]; five weeks of oral EIA10 in obese mice, Figure 3E,F) was “alleviated IR in the obese mice to some extent” and the “area under the OGTT curve (AUC)” value (HFD-fed mice [3]; vs HFD group, p < 0.05) was “significantly lower”. The “insulin secretion level after oral glucose” value (HFD-fed mice [3]; oral glucose 1 g/kg, vs HFD group, p < 0.05, Figure 3C,D) was “decreased”, the plasma leptin concentration ([5]; ELISA, HFD-fed mice, Figure 4B) was “reducing” and the “mRNA and protein levels of SREBP-1c in the adipose tissue” value ([5]; HFD-fed mice treated with EIA10 vs HFD group, Figure 4C,D) was “lower”. The “protein levels of adiponectin in mouse epididymal adipose tissue” value ([5]; Western blot, HFD-fed mice, Figure 4A) was “improved”, the “mRNA and protein levels of PPARγ” value ([5]; epididymal adipose tissue, HFD group mice, Figure 4C,D) was “decreased” and the “protein levels of PPARγ, C/EBP-α, SREBP-1c, and FABP4” value ([5]; epididymal adipose tissue, Western blot, Figure 4D) was “significantly decreased”. The “FAS and ACC gene expression” value ([5]; epididymal adipose tissue, Western blot, Figure 5A,B) was “inhibitory effect”, the “expression of PPARγ, C/EBP-α, FAS, and SREBP-1c” value ([5]; epididymal adipose tissue, real-time PCR, Figure 4C) was “downregulated” and the “Lipid Accumulation (% of Control)” value (3T3-L1 cells) was 30.22 % of Control.

For HLQLAIR [Peptide 4], the “Lipid Accumulation (% of Control)” value (3T3-L1 cells) was 63.26 % of Control.

With HLQLAIRNDEELNK [Peptide 22] the “Lipid Accumulation (% of Control)” value (3T3-L1 cells) was 83.11 % of Control.

For IAQGGVLP [Peptide 6], the “Lipid Accumulation (% of Control)” value (3T3-L1 cells) was 38.01 % of Control.

For KLPFQR [Peptide 1], the “Lipid Accumulation (% of Control)” value (3T3-L1 cells) was 57.85 % of Control.

For NDEELNKLL [Peptide 7], the “Lipid Accumulation (% of Control)” value (3T3-L1 cells) was 39.44 % of Control.

With NKLLSGVTIA [Peptide 14] the “Lipid Accumulation (% of Control)” value (3T3-L1 cells) was 77.76 % of Control.

QNIIPASTGAAK [Peptide 21] was tested, and the “Lipid Accumulation (% of Control)” value (3T3-L1 cells) was 44.40 % of Control.

With RFQSSAVMA [Peptide 12] the “Lipid Accumulation (% of Control)” value (3T3-L1 cells) was 57.47 % of Control.

RIVDFHMLESR [Peptide 18] was tested, and the “Lipid Accumulation (% of Control)” value (3T3-L1 cells) was 41.94 % of Control.

SGVTIAQGGVLP [Peptide 19] was tested, and the “Lipid Accumulation (% of Control)” value (3T3-L1 cells) was 68.00 % of Control.

STELLIR [Peptide 2] was tested, and the “Lipid Accumulation (% of Control)” value (3T3-L1 cells) was 59.04 % of Control.

With TLSDYNIQK [Peptide 13] the “Lipid Accumulation (% of Control)” value (3T3-L1 cells) was 68.00 % of Control.

VTIAQGGVLFNIQA [Peptide 23] was tested, and the “Lipid Accumulation (% of Control)” value (3T3-L1 cells) was 74.36 % of Control.
